This note sets out measurements from patent US8465788B2, “Arabinoxylans for modulating the barrier function of the intestinal surface” (BioActor B.V., priority 2008, dated 2013).

One assay relates to bifidobacteria. The assay is described as follows: DGGE fingerprint of the bifidobacterial community in the cecum of human-microbiota associated rats. The format is in vivo, rat. As to conditions: 10% in diet, three weeks. From the text:
FIG. 3 DGGE (Denaturing Gradient Gel Electrophoresis) fingerprint profiles of the community of bifidobacteria in the cecum of three groups of human-microbiota associated rats (n=8/group) treated for 3 weeks with a control diet, inulin (10%) or AX (10%). The profiles were obtained after amplification of the bifidobacterial community using group-specific PCR primers.
Three groups of eight rats with human associated microbiotia were used in the experiment: • Control • Inulin • AX
During three weeks animals were treated with either 10% inulin, AX or a control diet (=5% sugar+5% cornstarch) in order to compare the prebiotic effects of both oligosaccharides. At the end of the three weeks, the animals were euthanized.
In addition to this, the composition of the bifidobacterial community in the cecum was monitored by Denaturing Gradient Gel Electrophoresis (DGGE) (FIG. 3). […] Bifidobacterium longum is one of most important inhabitants in the human body. This bacterium is very helpful because it maintains a normal digestive tract, inhibits the growth of harmful bacteria, and also boosts the immune system (Reinert, Birgit. “Friendly tenants in the human gut: The genome of B. longum”. 2002. Genome News Network).

The test system of assay [1] is fecal microbial community. The assay is described as follows: SHIME in vitro gastrointestinal model: short chain fatty acid (A, P, B) ratios. Format: cell-based, human. Conditions: for A ratio (A/(A + P + B)), Ascending colon / A ratio, Descending colon / A ratio, Transverse colon / B ratio, Ascending colon / B ratio, Descending colon / B ratio, Transverse colon / P ratio, Ascending colon / P ratio, Descending colon / P ratio, Transverse colon: TWINSHIME
From the text: In Vitro Gastrointestinal Model—the Simulator of the Human Intestinal Microbial Ecosystem (SHIME)
The reactor setup was adapted from the SHIME, representing the gastrointestinal tract of the adult human, as described by Molly et al. (Molly, Woestyne et al. 1993). The SHIME consists of a succession of five reactors simulating the different parts of the human gastrointestinal tract. The first two reactors are of the fill-and-draw principle to simulate different steps in food uptake and digestion, with peristaltic pumps adding a defined amount of SHIME feed (140 mL 3×/day) and pancreatic and bile liquid (60 mL 3×/day), respectively to the stomach (V1) and duodenum (V2) compartment and emptying the respective reactors after specified intervals. The last three compartments are continuously stirred reactors with constant volume and pH control. Retention time and pH of the different vessels are chosen in order to resemble in vivo conditions in the different parts of the gastrointestinal tract. The overall residence time of the last three vessels, simulating the large intestine, is 76 h. Upon inoculation with fecal microbiota, these reactors simulate the ascending (V3), transverse (V4) and descending (V5) colon. Inoculum preparation, retention time, pH, temperature settings and reactor feed composition were previously described by Possemiers et al. (Possemiers, Verthe et al. 2004). In the comparison with of AX with inulin, two systems with identical environmental conditions (identical pH and temperature control) were run in parallel.
For the evaluation of the 2 prebiotics, the colon compartments of the SHIME reactors were first inoculated with an isolated fecal microbial community of a selected healthy volunteer. The SHIME reactor was operated under nominal conditions to stabilize the microbial community and let it adapt its metabolic activity and community composition to the conditions prevailing in the respective colon compartments. This stabilization period lasted for 3 weeks.
During the basal period, the SHIME reactor was operated under nominal conditions. Parameters such as short chain fatty acid (SCFA) production and ammonium production were determined 3 times/week. The results of these analyses served as the background values to be used to compare the measured parameters from the treatment period. The basal period lasted 2 weeks.
During the treatment period, the SHIME reactor was operated under nominal conditions, but with a modified diet containing a lower amount of starch in the medium compared to that of the basal period. In parallel, the ascending colon compartment of the first SHIME received inulin, whereas the second SHIME received AX. Both compounds were added in low doses of 1.5 g/d. SCFA and ammonium production were determined 3 times/week. This treatment period typically lasts for 3 weeks.
During the washout period, the SHIME reactor was operated under nominal conditions, with the initial diet. SCFA and ammonium production were determined 3 times/week. Analysis of these parameters allowed to assess whether possible changes from the treatment period normalize again to the levels of the basal period.
As acetate (A), propionate (P) and butyrate (B) are the main fatty acids produced by intestinal bacteria, the results are expressed as the ratio of each fatty acid to the sum of the 3 fatty acids.

In the next assay the test system is intestinal bacteria. The assay is described as follows: Prebiotic Index (gut lumen) and Prebiotic Attachment Index (gut wall mucus) in TWINSHIME
The format is cell-based, human. As to conditions: from day 23, TWINSHIME
Here is the method:
FIG. 4 Prebiotic Index (PI) and Prebiotic Attachment Index (PAI) before, during and after treatment with respectively inulin and AX. The X-axis indicates experiment days during the TWINSHIME run. Inulin or AX were administered to the TWINSHIME from day 2 until day 23.
In addition to the above-mentioned measurements, experiments were performed to quantify the attachment of intestinal bacteria to the mucus layer at the gut wall. As attachment to the gut wall is the first stage of interaction between bacteria and the human host (e.g. immunomodulation, pathogenesis), characterization of the microbial ecology at the site of the gut wall and assessment of changes in this community due to a prebiotic treatment is very important to evaluate the final health effects of a prebiotic treatment. Finally, the effect of the prebiotic treatment with inulin or AX on the composition of the microbial community in both the gut lumen and at the gut wall can be expressed quantitatively in specific indices.
The Prebiotic Index (PI) describes the increase in the gut lumen in beneficial bacteria, relative to harmful bacteria due to the prebiotic treatment. PI=(Bif/Total)+(Lac/Total)−(Ecol/Total)−(Clos/Total) […]
For both indices, an increase in the quantitative value is evaluated as positive, with the degree of increase as a parameter for success of the prebiotic treatment (FIG. 4).

In the case of inulin, the “composition of the bifidobacterial community in the cecum (DGGE)” value with bifidobacteria is on record as “little changes”. Also, the “prebiotic effect (relative increase in P and B compared to A) in the colon compartments” value in assay [1] (SHIME, 1.5 g/d) is reported as “only minor effects were observed in one colon compartment”. Further, in assay [1] (treatment period, 1.5 g/d), the “A ratio (A/(A + P + B)), Ascending colon” value is 0.45; the “A ratio, Descending colon” value amounted to 0.48; the “A ratio, Transverse colon” value is 0.43; the “B ratio, Ascending colon” value is listed as 0.27. For the same substance, in assay [1] (treatment period, 1.5 g/d), the “B ratio, Descending colon” value is reported as 0.24; the “B ratio, Transverse colon” value was determined as 0.26; the “P ratio, Ascending colon” value is given as 0.29; the “P ratio, Descending colon” value worked out at 0.28. For the same substance, in assay [1] (treatment period, 1.5 g/d), the “P ratio, Transverse colon” value worked out at 0.31. Further, in assay [1] (wash-out period), the “A ratio (A/(A + P + B)), Ascending colon” value is 0.45; the “A ratio, Descending colon” value was 0.53; the “A ratio, Transverse colon” value amounted to 0.44; the “B ratio, Ascending colon” value was determined as 0.20. For the same substance, in assay [1] (wash-out period), the “B ratio, Descending colon” value was 0.19; the “B ratio, Transverse colon” value came out at 0.21; the “P ratio, Ascending colon” value came out at 0.35; the “P ratio, Descending colon” value is on record as 0.28. In addition, the “P ratio, Transverse colon” value in assay [1] (wash-out period) was determined as 0.35. In addition, in the assay on intestinal bacteria, the “Prebiotic Attachment Index (PAI) after stopping the administration” value is “returned back to baseline” and the “Prebiotic Index (PI) after stopping the administration” value is “returned back to baseline”.
